From ChEMBL document CHEMBL5029175, “Discovery of MK-4688: an Efficient Inhibitor of the HDM2-p53 Protein-Protein Interaction” (J Med Chem, 2021) come the findings set out here.

The nature of data set [1]: Lipophilicity, logD of the compound at pH 7 by RP-HPLC analysis. The settings on record: buffer. The format is physicochemical.
In data set [2] the target is T1, Tumour suppressor p53/oncoprotein Mdm2 (Homo sapiens, UniProt Q00987). Kind of data set: Inhibition of N-terminal thioredoxin-His6 tagged HDM2 (17 to 125 residues)/p53 protein-protein interaction (unknown origin) incubated for 2 hrs by TR-FRET assay.
T1 sequence (P04637 whole entry, the tested form may be a part): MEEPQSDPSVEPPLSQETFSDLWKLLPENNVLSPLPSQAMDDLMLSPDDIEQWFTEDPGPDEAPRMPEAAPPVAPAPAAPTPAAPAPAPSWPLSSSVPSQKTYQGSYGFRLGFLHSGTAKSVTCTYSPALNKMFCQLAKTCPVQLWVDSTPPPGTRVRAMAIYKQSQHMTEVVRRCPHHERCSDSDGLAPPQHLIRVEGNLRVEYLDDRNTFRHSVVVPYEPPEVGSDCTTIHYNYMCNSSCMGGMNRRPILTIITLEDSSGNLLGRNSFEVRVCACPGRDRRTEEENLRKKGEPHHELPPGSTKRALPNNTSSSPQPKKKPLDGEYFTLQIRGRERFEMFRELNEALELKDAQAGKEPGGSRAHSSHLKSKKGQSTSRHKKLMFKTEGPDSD
T1 sequence (Q00987 whole entry, the tested form may be a part): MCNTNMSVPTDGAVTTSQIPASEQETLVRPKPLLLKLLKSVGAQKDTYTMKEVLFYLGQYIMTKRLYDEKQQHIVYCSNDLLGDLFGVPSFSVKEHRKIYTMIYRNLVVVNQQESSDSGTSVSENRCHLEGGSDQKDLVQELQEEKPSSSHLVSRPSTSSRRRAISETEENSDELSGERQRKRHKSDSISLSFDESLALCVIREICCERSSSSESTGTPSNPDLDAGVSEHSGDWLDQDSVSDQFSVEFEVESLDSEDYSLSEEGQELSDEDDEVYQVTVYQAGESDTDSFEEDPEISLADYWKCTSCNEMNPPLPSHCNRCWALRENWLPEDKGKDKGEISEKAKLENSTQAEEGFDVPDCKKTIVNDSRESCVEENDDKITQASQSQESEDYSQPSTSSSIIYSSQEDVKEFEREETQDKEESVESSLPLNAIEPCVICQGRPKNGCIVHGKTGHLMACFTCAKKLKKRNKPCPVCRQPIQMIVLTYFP
Data set [3] in a line: Selectivity index, ratio of IC50 for inhibition of HDM2/p53 interaction in human HCT-116 cells expressing p53/Bla to IC50 for inhibition of N-terminal thioredoxin-His6 tagged HDM2 (17 to 125 residues)/p53 protein-protein interaction (unknown origin). The format is cell-based.
The target of data set [4] is T1, Tumour suppressor p53/oncoprotein Mdm2. As to the kind of experiment: Inhibition of HDM2/p53 interaction in human HCT-116 cells expressing p53RE/Bla incubated for 16 hrs by beta-lactamase reporter gene assay. It counts as cell-based. In general terms: In a reporter assay the amount or activity of a reporter protein is the signal.
A further data set deals with HCT-116. As to the kind of experiment: cells. The conditions noted are these: Homo sapiens, HCT-116, 72 h.
Data set [5] can be described thus: Mean residence time in rat. The format is ADME. The conditions noted are these: in vivo.
Data set [6] in a line: Unbound clearance in dog. The conditions noted are these: in vivo. It counts as ADME, Canis lupus familiaris.
A short description of data set [7]: Mean residence time in dog. It counts as ADME, Canis lupus familiaris. The conditions noted are these: in vivo.
A short description of data set [8]: Unbound clearance in rat. The format is ADME. The conditions noted are these: in vivo.
Data set [9] can be described thus: Bioavailability in rat. It counts as ADME, organism-based. The settings on record: in vivo.
Data set [10] is described as follows: Bioavailability in dog. The format is ADME, organism-based, Canis lupus familiaris. The settings on record: in vivo.

The term logD denotes the decadic logarithm of the distribution of all forms, ionised or not, between an organic phase and buffer at a given pH. What is called IC50 is the concentration needed to halve the response being measured. Read a low IC50 as greater potency. `C[C@@H](Nc1nc(C(=O)O)nc2nc(N3CCOC[C@H]3c3ccccc3)n(Cc3ccc(C(F)(F)F)cc3)c12)C1CCC1` came in with a logD in [1] of 2.32. Besides, in data set [2], the IC50 amounted to 0.0018 µM.

As for `C[C@@H](Nc1nc(C(=O)O)nc2nc(N3CCOC[C@H]3c3ccccc3)n(C[C@H]3CC[C@H](C)CC3)c12)C1CCC1`, the Ratio IC50 in data set [3] is 5500. Besides, in [4], inhibition was half-maximal at 1.1 µM (IC50).

As to `CC(C)c1ccnc(-c2nc3nc(C(=O)O)nc(N[C@H](C)C4CCC4)c3n2C[C@H]2CC[C@@H](C)CC2)c1`, the logD in [1] came to 2.7. In data set [2], this compound had an IC50 of 0.348 µM.

In data set [1], `C[C@H]1CC[C@H](Cn2c(N3CCOC[C@H]3c3ccccc3)nc3nc(-c4noc(=O)[nH]4)nc(-c4ccccc4)c32)CC1` registered a logD of 2.72. Besides, the half-inhibitory concentration (IC50) is 6.37 µM with HCT-116 and 0.632 µM in data set [4].

In turn, `Cc1cccc(-c2nc3nc(C(=O)O)nc(NCC4CC4)c3n2CC2CCCCC2)c1` had a log distribution coefficient (logD) in data set [1] of 3.7. In addition, the IC50 in data set [2] came to 8.4 µM.

Broadly, the MRT is a mean duration of stay, worked out from the concentration-time curve. The bioavailability is the share of a dose that reaches the circulation, judged against a reference dose that is usually intravenous. Consider `C[C@@H]1COC[C@@H](C)N1c1nc2cc(-c3noc(=O)[nH]3)nc(-c3cncc(Cl)c3)c2n1C[C@H]1CC[C@H](C)CC1`, for which the mean residence time MRT in data set [5] came out at 0.3 h; in data set [7] it was 3.9 h. Moreover, the CL free came out at 131 mL/min/kg in [6] and 2166 mL/min/kg in data set [8]. In [1], this compound yielded a logD of 2.32. 0.248 µM corresponded to half-maximal inhibition in the data set on HCT-116 (IC50). The bioavailability in [9] was 9%.

For the compound `Cc1cncc(-c2nc(-c3noc(=O)[nH]3)nc3nc(N4CCOC[C@H]4c4ccccc4)n(C[C@H]4CC[C@H](C)CC4)c23)c1`, in data set [1], the logD worked out at 2.17. The IC50 in the data set with HCT-116 is 7.8 µM; in [4], 3.67 µM.

In the case of `CCOC(c1nc2cc(-c3noc(=O)[nH]3)nc(-c3cncc(Cl)c3)c2n1C[C@H]1CC[C@H](C)CC1)C1CC1` (stereo partly drawn), in data set [6], the CL free is 206 mL/min/kg. In data set [7], this compound had an MRT of 1.6 h. This compound also showed a logD in data set [1] of 2.34. In the data set on HCT-116, this compound showed an IC50 of 0.466 µM.

Turning to `C[C@@H](Nc1nc(CO)nc2nc(N3CCOC[C@H]3c3ccccc3)n(C[C@H]3CC[C@H](C)CC3)c12)C1CCC1`, the Ratio IC50 in [3] worked out at 52. The compound further displayed an IC50 in [4] of 4.1 µM.

`C[C@@H](Nc1nc(-c2nnc[nH]2)nc2nc(N3CCOC[C@H]3c3ccccc3)n(C[C@H]3CC[C@H](C)CC3)c12)C1CCC1`: the Ratio IC50 in [3] amounted to 66. The IC50 was determined as 0.011 µM in data set [2] and 0.724 µM in data set [4].

As to `C[C@@H](Nc1nc(C(=O)O)nc2nc(-c3ccc4sccc4c3)n(Cc3ccc(Cl)cc3)c12)C1CC1`, the logD in [1] was 2.2.

In data set [1], `CC(C)c1ccnc(-c2nc3nc(C(=O)O)nc(N[C@H](C)C4CCC4)c3n2Cc2ccc(C(F)(F)F)s2)c1` returned a logD of 2.67.

On to `CC(C)c1ccnc(-c2nc3nc(C(=O)O)nc(N[C@H](C)C4CCC4)c3n2Cc2ccc(OC(F)(F)F)c(F)c2)c1`, for which the pH-dependent lipophilicity (logD) in [1] came out at 2.84.

As for `COCC(c1ccccc1)c1nc2cc(-c3noc(=O)[nH]3)nc(-c3cncc(Cl)c3)c2n1C[C@H]1CC[C@H](C)CC1` (mixture of isomers), in [1], the logD was 2.62. Besides, the IC50 in the data set with HCT-116 is 0.451 µM.

The compound `COCC(C)c1nc2cc(-c3noc(=O)[nH]3)nc(-c3cncc(Cl)c3)c2n1C[C@H]1CC[C@H](C)CC1` (stereo partly drawn) gave a CL free in data set [6] of 171 mL/min/kg. In addition, the MRT in [7] is 1.2 h. In data set [1], the logD was 2.03. The same compound gave an IC50 in the data set on HCT-116 of 1.11 µM.

As for `CC(C)c1ccnc(-c2nc3nc(C(=O)O)nc(N[C@H](C)C4CCC4)c3n2C[C@H]2CC[C@H](C)CC2)c1` (mixture of isomers), the logD in data set [1] stood at 2.94. Also, in data set [2], the IC50 is 0.0022 µM.

In [1], `CC(C)c1cccc(-c2nc3nc(C(=O)O)nc(N[C@H](C)C4CCC4)c3n2Cc2ccc(C(F)(F)F)cc2)c1` yielded a logD of 2.86. In data set [2], this compound displayed an IC50 of 0.015 µM.

In the case of `C[C@@H](Nc1nc(C(=O)O)nc2nc(N3CCOC[C@@H]3c3ccccc3)n(Cc3ccc(C(F)(F)F)cc3)c12)C1CCC1`, in data set [1], the logD was found to be 2.34.

Take `CCO[C@@H](c1nc2cc(-c3noc(=O)[nH]3)nc(-c3cncc(Cl)c3)c2n1[C@H](C)[C@H]1CC[C@H](C)CC1)C1CC1`: the MRT was found to be 0.5 h in data set [5] and 3.1 h in data set [7]. Moreover, the CL free in data set [6] stood at 323 mL/min/kg; in data set [8] it was 2060 mL/min/kg. This compound gave a logD in [1] of 2.75. Besides, inhibition in the data set with HCT-116 was half-maximal at 0.031 µM (IC50). Also, the bioavailability was found to be 54% in [9] and 93% in data set [10].

As to `C[C@H]1CC[C@H](Cn2c(N3CCOC[C@H]3c3ccccc3)nc3nc(-c4noc(=O)[nH]4)nc(-c4cncc(Cl)c4)c32)CC1`, the logD in [1] was 2.55. For the same compound, the figures for the IC50 (in the data set on HCT-116; in data set [4]) were 1.97 µM and 0.401 µM, respectively.

Take `C[C@@H](Nc1nc(-c2n[nH]c(=O)o2)nc2nc(N3CCOC[C@H]3c3ccccc3)n(C[C@H]3CC[C@H](C)CC3)c12)C1CCC1`: the Ratio IC50 in data set [3] turned out to be 70. Further, the IC50 is 0.002 µM in data set [2] and 0.14 µM in data set [4].

Regarding `C[C@H]1CC[C@H](Cn2c(N3CCOC[C@H]3c3ccccc3)nc3cc(-c4noc(=O)[nH]4)nc(-c4cncc(Cl)c4)c32)CC1`, the MRT in data set [5] is 0.4 h; in [7], 1.7 h. The CL free in data set [6] came to 1607 mL/min/kg; in data set [8] it was 20745 mL/min/kg. In [1], this compound gave a logD of 2.69. Also, the IC50 was 0.00061 µM in data set [2], 0.093 µM with HCT-116 and 0.031 µM in data set [4]. The bioavailability was found to be 5% in [9] and 39% in [10].

Consider `CC(C)c1ccnc(-c2nc3nc(C(=O)O)nc(N[C@H](C)C4CCC4)c3n2Cc2ccc(OC(F)(F)F)cc2)c1`, for which, in data set [1], the logD was determined as 2.81. The IC50 in data set [2] turned out to be 0.012 µM.

In turn, `CC(C)c1ccnc(-c2nc3nc(C(=O)O)nc(N[C@H](C)C4CCC4)c3n2Cc2ccc(C(F)(F)F)cc2)c1` registered a logD in data set [1] of 2.66. This compound also showed a concentration for half-maximal inhibition (IC50) in data set [2] of 0.004 µM.

In data set [1], `C[C@@H](Nc1nc(C(=O)O)nc2nc(N[C@@H](CO)c3ccccc3)n(Cc3ccc(C(F)(F)F)cc3)c12)C1CCC1` showed a logD of 1.94. The compound further showed an IC50 in [2] of 0.0015 µM.

With `C[C@@H](Nc1nc(-c2nc(=O)n(C)[nH]2)nc2nc(N3CCOC[C@H]3c3ccccc3)n(C[C@H]3CC[C@H](C)CC3)c12)C1CCC1`, the Ratio IC50 in data set [3] worked out at 135. The half-maximal inhibitory concentration (IC50) in data set [2] was 0.0015 µM; in data set [4] it was 0.203 µM.

As for `COCC(C)c1nc2cc(-c3noc(=O)[nH]3)nc(-c3cncc(Cl)c3)c2n1[C@H](C)[C@H]1CC[C@H](C)CC1` (stereo partly drawn), the MRT was 0.4 h in [5] and 3.8 h in data set [7]. Besides, the results for the CL free in [6] and in data set [8] were 59 mL/min/kg and 1150 mL/min/kg, respectively. Besides, the log distribution coefficient (logD) in data set [1] worked out at 2.59. This compound also registered an IC50 in the data set with HCT-116 of 0.222 µM. The bioavailability in data set [9] worked out at 46%; in [10], 54%.

Consider `C[C@@H](Nc1nc(-c2n[nH]c(=O)n2C)nc2nc(N3CCOC[C@H]3c3ccccc3)n(C[C@H]3CC[C@H](C)CC3)c12)C1CCC1`, for which the Ratio IC50 in [3] is 66. Further, the IC50 came to 0.015 µM in [2] and 0.99 µM in data set [4].

`C[C@H]1CC[C@H](Cn2c(N3CCC[C@H]3C(F)(F)F)nc3cc(-c4noc(=O)[nH]4)nc(-c4cncc(Cl)c4)c32)CC1`: the MRT was found to be 0.35 h in [5] and 2.5 h in [7]. Moreover, the CL free amounted to 1500 mL/min/kg in data set [6] and 11233 mL/min/kg in data set [8]. Also, the logD in data set [1] turned out to be 2.85. The compound also had an IC50 in the data set on HCT-116 of 0.099 µM. For the same compound, in data set [9], the bioavailability was determined as 11%.

In turn, `C[C@H]1CC[C@H](Cn2c(N3CCOC[C@H]3c3ccccc3)nc3nc(-c4noc(=O)[nH]4)nc(-c4cccc(Cl)c4)c32)CC1` registered a logD in data set [1] of 3.15. Also, the IC50 in [2] came to 0.0013 µM; in the data set with HCT-116, 0.723 µM; in data set [4], 0.113 µM.

`C[C@@H](Nc1nc(C(=O)O)nc2nc(NC3CCCCC3)n(Cc3ccc(C(F)(F)F)cc3)c12)C1CCC1` yielded a logD in data set [1] of 2.62.

For `C[C@H]1CC[C@H](Cn2c(N3CCC[C@H]3CF)nc3cc(-c4noc(=O)[nH]4)nc(-c4cncc(Cl)c4)c32)CC1`, the MRT in data set [5] stood at 0.25 h; in data set [7], 1.5 h. The figures for the CL free in data set [6] and in [8] were 920 mL/min/kg and 3244 mL/min/kg, respectively. Moreover, in [1], the logD came to 2.42. This compound also registered a concentration for half-maximal inhibition (IC50) with HCT-116 of 0.169 µM. Moreover, the bioavailability in [9] worked out at 7%; in [10], 37%.
